Assays:
[1] = assay type: physicochemical; details: pH 7.4
Description: The primary difference between the members of the Rubbn family of complexes is the number of methylene groups in the flexible linking chain. […] Lipophilicity is a significant factor affecting the biological activity of most therapeutic compounds, as it relates to the capacity of the drug to penetrate through the cell membrane. The standard octanol-water partition coefficient (logP) was determined for the Rubbn series (F. Lombardo, B. Faller, M. Shalaeva, I. Tetko and S. Tilton, Methods and Principles in Medicinal Chemistry, 2008, 37, 407) parent model mononuclear species ([Ru(phen)2(Me2bpy)]^2+) and the trinuclear and tetranuclear complexes.
The partition coefficients (logP) were measured using the shake flask technique: each ruthenium complex (at both 0.05 and 0.1 mM) was dissolved in the water phase (0.2 M Na2HPO4—NaH2PO4 buffer, pH=7.4) and an equivalent volume of n-octanol was added.
The two phases were mutually saturated by shaking overnight at ambient temperature and then were allowed to separate on standing. The concentration of the metal complex in each phase was determined spectrophotometrically at l=450 nm.

[2] = test system: MRSA (a wild clinical strain from the JCU culture collection); assay: MIC determination, broth micro-dilution (CAMHB); assay type: cell-based, methicillin-resistant S. aureus; details: Table 1; 37° C., 24 h
Description: (§1) Four strains of bacteria were chosen for the susceptibility tests: S. aureus ATCC 25923; MRSA (a wild clinical strain from the JCU culture collection); E. coli ATCC 25922 and P. aeruginosa ATCC 27853. The bacteria were grown on Mueller Hinton agar (OXOID, cat. No. CM0337) and suspended in growth medium cation-adjusted Mueller Hinton broth (CAMHB, OXOID, cat. No. CM0405). The MIC of each complex was determined in duplicate by standard micro-dilution methodology (British Society for Antimicrobial Chemotherapy Working Party, J. Antimicrob. Chemother., 1991, 27(suppl. D), 22) using gentamicin as the positive control. The ruthenium complexes were dissolved in CAMHB to a stock solution of […] and two-fold diluted in the broth in 96-well plates in a final volume of […] in each well. The same volume […] of bacterial suspension was added in each well making a concentration range of 0.25 mg ml^−1 to 128 mg ml^−1 for each complex. The plates were incubated at 37° C. for 24 h. The results are summarised in Table 1 below, using the following abbreviations: • Rubpm=ΔΔ-[{Ru(phen)2}2(μ-2,2′-bipyrimidine)]Cl4 • Rudppm=ΔΔ-[{Ru(phen)2}2(μ-4,6-bis(2-pyridyl)pyrimidine)]Cl4 • Rubb7trinuclear=Δ*Δ*-[{Ru*(phen)2}(μ-bb7){Ru(phen)}(μ-bb7){Ru*(phen)2}]Cl6 (only the two terminal metal centres are chiral, the two central metal centres are racemic) • Rubb7tetranuclear=Δ*Δ*-[{Ru*(phen)2}(μ-bb7) {Ru(phen)}(μ-bb7){Ru(phen)}(μ-bb7)-{Ru*(phen)2}]Cl8 (only the two terminal metal centres are chiral, the two central metal centres are racemic)
(§2) Further MIC assays and Minimum Bactericidal Concentration (MBC) assays were conducted against Gram-positive and Gram-negative bacterial strains using symmetric and non-symmetric, inert and labile complexes.

P. aeruginosa ATCC 27853 = assay: MIC determination, broth micro-dilution (CAMHB); assay type: cell-based, Pseudomonas aeruginosa; details: Table 1; 37° C., 24 h
Description: as §1, §2

E. coli ATCC 25922 = assay: MIC determination, broth micro-dilution (CAMHB); assay type: cell-based, Escherichia coli; details: Table 1; 37° C., 24 h
Description: as §1, §2

S. aureus ATCC 25923 = assay: MIC determination, broth micro-dilution (CAMHB); assay type: cell-based, Staphylococcus aureus; details: Table 1; 37° C., 24 h
Description: as §1, §2

Compound | logP [1] | MIC MRSA [2] | MIC P. aeruginosa (P. aeruginosa ATCC 27853) | MIC E. coli (E. coli ATCC 25922) | MIC S. aureus (S. aureus ATCC 25923)
Cc1cc[n+]2c(c1)-c1cc(CCc3cc[n+]4c(c3)-c3cc(C)cc[n+]3[Ru-4]435([n+]4cccc6ccc7ccc[n+]3c7c64)[n+]3cccc4ccc6ccc[n+]5c6c43)cc[n+]1[Ru-4]213([n+]2cccc4ccc5ccc[n+]1c5c42)[n+]1cccc2ccc4ccc[n+]3c4c21 [Rubb2, [{Ru(phen)2}2(μ-bb2)]^4+] | −3.6 | – | – | – | –
Cc1ccnc(-c2cc(CCCCCCCc3cc[n+]4c(c3)-c3cc(C)cc[n+]3[Ru-4]435([n+]4cccc6ccc7ccc[n+]3c7c64)[n+]3cccc4ccc6ccc[n+]5c6c43)ccn2)c1 [Rubb7mono, Δ-[Ru(phen)2(bb7)]^2+] | −0.7 | 16 µg/mL | 32 µg/mL | 16 µg/mL | 4 µg/mL
Cc1ccnc(-c2cc(CCCCCCCCCCc3ccnc(-c4cc(C)ccn4)c3)ccn2)c1.F[P-](F)(F)(F)(F)F.F[P-](F)(F)(F)(F)F.F[P-](F)(F)(F)(F)F.F[P-](F)(F)(F)(F)F.[Ru+2].[Ru+2].c1cnc2c(c1)ccc1cccnc12.c1cnc2c(c1)ccc1cccnc12.c1cnc2c(c1)ccc1cccnc12.c1cnc2c(c1)ccc1cccnc12 [Rubb10, [{Ru(phen)2}2(μ-bb10)](PF6)4] | −3.3 | – | – | – | –
Cc1cc[n+]2c(c1)-c1cc(CCCCCCCCCCCCCCc3cc[n+]4c(c3)-c3cc(C)cc[n+]3[Ru-4]435([n+]4cccc6ccc7ccc[n+]3c7c64)[n+]3cccc4ccc6ccc[n+]5c6c43)cc[n+]1[Ru-4]213([n+]2cccc4ccc5ccc[n+]1c5c42)[n+]1cccc2ccc4ccc[n+]3c4c21.[Cl-].[Cl-].[Cl-].[Cl-] [Rubb14, [{Ru(phen)2}2(μ-bb14)]Cl4] | −2.3 | – | – | – | –
Cc1cnc2c(ccc3c(C)c(C)cnc32)c1C.Cc1cnc2c(ccc3c(C)c(C)cnc32)c1C.Cc1cnc2c(ccc3c(C)c(C)cnc32)c1C.[Ru+2] [[Ru(Me4phen)3]^2+, reference compound] | – | 4 µg/mL | 32 µg/mL | 8 µg/mL | 0.5 µg/mL
[Ru+2].c1cnc2c(c1)ccc1cccnc12.c1cnc2c(c1)ccc1cccnc12.c1cnc2c(c1)ccc1cccnc12 [[Ru(phen)3]^2+, reference compound] | – | >128 µg/mL | >128 µg/mL | >128 µg/mL | >128 µg/mL
Cc1cc[n+]2c(c1)-c1cc(CCc3cc[n+]4c(c3)-c3cc(C)cc[n+]3[Ru-4]435([n+]4cccc6ccc7ccc[n+]3c7c64)[n+]3cccc4ccc6ccc[n+]5c6c43)cc[n+]1[Ru-4]213([n+]2cccc4ccc5ccc[n+]1c5c42)[n+]1cccc2ccc4ccc[n+]3c4c21 [ΔΔ-Rubb2, [{Ru(phen)2}2(μ-bb2)]^4+] | – | – | – | >128 µg/mL | –
Cc1cc[n+]2c(c1)-c1cc(CCc3cc[n+]4c(c3)-c3cc(C)cc[n+]3[Ru-4]435([n+]4cccc6ccc7ccc[n+]3c7c64)[n+]3cccc4ccc6ccc[n+]5c6c43)cc[n+]1[Ru-4]213([n+]2cccc4ccc5ccc[n+]1c5c42)[n+]1cccc2ccc4ccc[n+]3c4c21 [ΛΛ-Rubb2, [{Ru(phen)2}2(μ-bb2)]^4+] | – | >128 µg/mL | >128 µg/mL | – | >128 µg/mL
Cc1cc[n+]2c(c1)-c1cc(CCCCCCCc3cc[n+]4c(c3)-c3cc(C)cc[n+]3[Ru-4]435([n+]4cccc6ccc7ccc[n+]3c7c64)[n+]3cccc4ccc6ccc[n+]5c6c43)cc[n+]1[Ru-4]213([n+]2cccc4ccc5ccc[n+]1c5c42)[n+]1cccc2ccc4ccc[n+]3c4c21.F[P-](F)(F)(F)(F)F.F[P-](F)(F)(F)(F)F.F[P-](F)(F)(F)(F)F.F[P-](F)(F)(F)(F)F [ΛΛ-Rubb7, [{Ru(phen)2}2(μ-bb7)](PF6)4] | – | 32 µg/mL | 64 µg/mL | 16 µg/mL | 64 µg/mL
Cc1ccnc(-c2cc(CCCCCCCCCCc3ccnc(-c4cc(C)ccn4)c3)ccn2)c1.F[P-](F)(F)(F)(F)F.F[P-](F)(F)(F)(F)F.F[P-](F)(F)(F)(F)F.F[P-](F)(F)(F)(F)F.[Ru+2].[Ru+2].c1cnc2c(c1)ccc1cccnc12.c1cnc2c(c1)ccc1cccnc12.c1cnc2c(c1)ccc1cccnc12.c1cnc2c(c1)ccc1cccnc12 [ΛΛ-Rubb10, [{Ru(phen)2}2(μ-bb10)](PF6)4] | – | 8 µg/mL | 32 µg/mL | 4 µg/mL | 8 µg/mL
Cc1cc[n+]2c(c1)-c1cc(CCCCCCCCCCCCCCc3cc[n+]4c(c3)-c3cc(C)cc[n+]3[Ru-4]435([n+]4cccc6ccc7ccc[n+]3c7c64)[n+]3cccc4ccc6ccc[n+]5c6c43)cc[n+]1[Ru-4]213([n+]2cccc4ccc5ccc[n+]1c5c42)[n+]1cccc2ccc4ccc[n+]3c4c21.[Cl-].[Cl-].[Cl-].[Cl-] [ΛΛ-Rubb14, [{Ru(phen)2}2(μ-bb14)]Cl4] | – | 1 µg/mL | 8 µg/mL | 2 µg/mL | 1 µg/mL
Cc1ccnc(-c2cc(CCCCCCCCCCCCCCCCc3ccnc(-c4cc(C)ccn4)c3)ccn2)c1.[Cl-].[Cl-].[Cl-].[Cl-].[Ru+2].[Ru+2].c1cnc2c(c1)ccc1cccnc12.c1cnc2c(c1)ccc1cccnc12.c1cnc2c(c1)ccc1cccnc12.c1cnc2c(c1)ccc1cccnc12 [ΛΛ-Rubb16, [{Ru(phen)2}2(μ-bb16)]Cl4] | – | 1 µg/mL | 8 µg/mL | 4 µg/mL | 1 µg/mL
[Ru(Me2phen)3]^2+ [reference compound] | – | 128 µg/mL | >128 µg/mL | 128 µg/mL | 8 µg/mL
[{Ru(phen)2}2(μ-bb5)](PF6)4 [Rubb5] | −3.5 | – | – | – | –
[{Ru(phen)2}2(μ-bb5)](PF6)4 [ΔΔ-Rubb5] | – | 128 µg/mL | >128 µg/mL | 128 µg/mL | 128 µg/mL
[{Ru(phen)2}2(μ-bb5)](PF6)4 [ΛΛ-Rubb5] | – | 128 µg/mL | 128 µg/mL | 64 µg/mL | 128 µg/mL
[{Ru(phen)2}2(μ-bb12)] [ΛΛ-Rubb12] | – | 2 µg/mL | 16 µg/mL | 2 µg/mL | 2 µg/mL
Δ*Δ*-[{Ru*(phen)2}(μ-bb7) {Ru(phen)}(μ-bb7){Ru(phen)}(μ-bb7)-{Ru*(phen)2}]Cl8 [Rubb7tetranuclear] | −1.9 | 8 µg/mL | 8 µg/mL | 32 µg/mL | 8 µg/mL
Δ*Δ*-[{Ru*(phen)2}(μ-bb7){Ru(phen)}(μ-bb7){Ru*(phen)2}]Cl6 [Rubb7trinuclear] | −1.2 | 4 µg/mL | 2 µg/mL | 16 µg/mL | 4 µg/mL
ΔΔ-[{Ru(phen)2}2(μ-bb14)](PF6)4 [ΔΔ-Rubb14] | – | 1 µg/mL | 8 µg/mL | 4 µg/mL | 1 µg/mL
ΔΔ-[{Ru(phen)2}2(μ-bbN7)] [ΔΔ-RubbN7] | – | >128 µg/mL | >128 µg/mL | >128 µg/mL | >128 µg/mL
ΔΔ-[{Ru(phen)2}2(μ-bbN12)]Cl4 [ΔΔ-RubbN12] | – | 128 µg/mL | >128 µg/mL | 128 µg/mL | 128 µg/mL
ΔΔ-[{Ru(phen)2}2(μ-bbO7)](PF6)4 [ΔΔ-RubbO7] | – | 128 µg/mL | >128 µg/mL | 128 µg/mL | 128 µg/mL
